Laboratory results reported in publication PMC12974487, “Inhibition of FicD-mediated AMPylation and deAMPylation by isoprenoid diphosphates” (Proceedings of the National Academy of Sciences of the …, 2026).
“Also recorded” adds a separate entry of the source.

Target: T1, FicD^R374H (Homo sapiens, UniProt Q9BVA6, R374H)
T1 construct: Wild-type FicD (residues 105-458) and all mutants were expressed as N-terminal 6xHis-Sumo fusions; 6xHis-Sumo (N, cleaved yes); made in house; host or cells: Rosetta(DE3) E. coli
T1 sequence (Q9BVA6 105-458 R374H): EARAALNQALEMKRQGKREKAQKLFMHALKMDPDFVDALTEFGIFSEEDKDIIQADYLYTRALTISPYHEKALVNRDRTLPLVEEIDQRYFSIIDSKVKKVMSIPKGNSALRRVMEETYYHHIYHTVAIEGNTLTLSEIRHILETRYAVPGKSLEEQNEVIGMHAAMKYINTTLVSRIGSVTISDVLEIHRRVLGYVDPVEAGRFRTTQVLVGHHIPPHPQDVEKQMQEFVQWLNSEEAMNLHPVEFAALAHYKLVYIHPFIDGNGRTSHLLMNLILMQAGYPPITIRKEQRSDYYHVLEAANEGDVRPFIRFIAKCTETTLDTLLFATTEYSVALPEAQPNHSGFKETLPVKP
Assay: AMPylation of Δ26hBiP^T229A by pathogenic variant FicD^R374H
Assay type: biochemical
Details: indicated concentrations of FPP
Source text: Fig. 5. Crystal structure of FPP inhibitor bound to FicD active site. […] FPP (cyan stick) and Mg^2+ (cyan sphere) in the pocket of FicD shown as APBS electrostatic surface with positive areas in blue, negative in red, and neutral in white (contour level: ±5 kBT/e) (Right). […] (C–E) AMPylation assays of Δ26hBiP^T229A in the presence of the indicated concentration of FPP using the pathogenic human variants (C) FicD^R371S, (D) FicD^R374H and (E) FicD^R374C. AMPylated BiP and Fic were quantified by immunodetection, and total BiP was quantified by CBB. […]
Isothermal Titration Calorimetry
Proteins were dialyzed against 25mM HEPES pH 7.4/100mM KCl/10% glycerol prior to titration.
Dialyzed proteins were then spun down at 21,000G for 15 minutes at 4C to remove trace insoluble material. The protein concentration was measured spectrophotometrically and then diluted to working concentration with 25mM HEPES pH 7.4/100mM KCl/10% glycerol. MgCl2 was added to proteins to a final concentration of 4mM. ITC experiments were performed in a Micro-Cal PEAQ-ITC (Malvern Panalytical, Worcestershire, UK) calorimeter with a stirred 206.2 μL reaction cell held at 20 °C. 250μM FPP was titrated into 25uM Δ104hFicL258D with 750rpm stirring. The first injection was 0.5 μL, followed by twenty 1.9 μL injections. […]
Thermogram and binding figures were plotted in […]

Compound: CC(C)=CCC/C(C)=C/CC/C(C)=C/COP(=O)(O)OP(=O)(O)O [FPP, farnesyl-pyrophosphate]
- FPP inhibition of FicD^R374H mediated AMPylation: inhibition; also recorded: inhibited
